Reference: patent publication US8940724B2, “Quinoline derivitives and their uses” (Amgen Inc., priority 2009, dated 2015)

Target: T1, PI3Kδ (Homo sapiens, UniProt O00329)
T1 construct: Full length p110 subunits of PI3k α, β and δ, N-terminally labeled with polyHis tag; polyHis (N); made in house; host or cells: Sf9 insect cells (baculovirus)
Experiment: PI3Kδ Alphascreen assay
Format: biochemical

T1 sequence (O00329 whole entry): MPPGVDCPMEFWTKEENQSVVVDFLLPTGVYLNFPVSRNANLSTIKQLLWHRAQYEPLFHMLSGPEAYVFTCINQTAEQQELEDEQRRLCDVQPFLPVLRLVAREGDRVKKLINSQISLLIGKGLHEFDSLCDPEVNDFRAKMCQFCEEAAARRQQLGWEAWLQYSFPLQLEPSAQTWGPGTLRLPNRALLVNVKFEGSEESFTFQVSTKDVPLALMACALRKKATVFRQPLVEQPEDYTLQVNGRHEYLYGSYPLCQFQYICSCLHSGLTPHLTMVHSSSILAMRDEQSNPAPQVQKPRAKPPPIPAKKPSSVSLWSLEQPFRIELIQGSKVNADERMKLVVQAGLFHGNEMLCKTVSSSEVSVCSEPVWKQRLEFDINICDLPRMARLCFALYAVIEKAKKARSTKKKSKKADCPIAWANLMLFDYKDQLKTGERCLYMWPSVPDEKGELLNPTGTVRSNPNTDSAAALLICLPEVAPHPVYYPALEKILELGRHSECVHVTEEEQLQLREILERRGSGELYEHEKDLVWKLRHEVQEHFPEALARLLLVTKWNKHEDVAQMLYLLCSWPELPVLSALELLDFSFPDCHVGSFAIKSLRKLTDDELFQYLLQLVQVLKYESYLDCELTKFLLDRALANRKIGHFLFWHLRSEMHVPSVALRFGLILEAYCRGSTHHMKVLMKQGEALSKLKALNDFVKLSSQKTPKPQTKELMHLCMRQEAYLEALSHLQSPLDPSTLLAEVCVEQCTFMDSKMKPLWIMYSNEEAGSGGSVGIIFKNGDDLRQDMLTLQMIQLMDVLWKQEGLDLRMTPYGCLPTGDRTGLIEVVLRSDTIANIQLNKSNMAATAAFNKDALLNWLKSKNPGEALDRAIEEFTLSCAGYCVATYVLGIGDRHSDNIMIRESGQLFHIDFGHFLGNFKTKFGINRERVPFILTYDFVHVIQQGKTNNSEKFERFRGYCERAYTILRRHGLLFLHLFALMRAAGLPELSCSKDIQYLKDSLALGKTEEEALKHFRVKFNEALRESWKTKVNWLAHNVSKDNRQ
T1 sequence (P27986 whole entry partner): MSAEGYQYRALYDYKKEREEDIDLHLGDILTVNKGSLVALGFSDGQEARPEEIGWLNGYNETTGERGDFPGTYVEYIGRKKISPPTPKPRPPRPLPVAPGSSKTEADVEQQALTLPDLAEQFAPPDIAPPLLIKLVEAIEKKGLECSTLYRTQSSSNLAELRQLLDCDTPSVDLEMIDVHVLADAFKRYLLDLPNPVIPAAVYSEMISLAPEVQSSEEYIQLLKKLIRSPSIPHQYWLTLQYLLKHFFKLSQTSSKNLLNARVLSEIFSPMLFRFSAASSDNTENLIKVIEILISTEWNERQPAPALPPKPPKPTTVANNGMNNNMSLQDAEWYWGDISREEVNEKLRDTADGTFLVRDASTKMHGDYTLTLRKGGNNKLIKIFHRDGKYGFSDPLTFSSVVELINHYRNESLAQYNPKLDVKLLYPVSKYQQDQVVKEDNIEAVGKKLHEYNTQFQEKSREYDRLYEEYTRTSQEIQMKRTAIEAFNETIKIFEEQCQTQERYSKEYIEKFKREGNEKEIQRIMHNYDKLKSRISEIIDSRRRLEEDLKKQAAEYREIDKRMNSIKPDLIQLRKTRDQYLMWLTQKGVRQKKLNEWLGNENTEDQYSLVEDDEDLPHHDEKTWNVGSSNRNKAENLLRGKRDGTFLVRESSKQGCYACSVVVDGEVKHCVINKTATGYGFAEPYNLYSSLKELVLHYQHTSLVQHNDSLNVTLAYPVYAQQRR

Row | Structure (SMILES) | Ki
1 | Cc1c(-c2ccccc2S(C)(=O)=O)nc2cc(F)cc(F)c2c1Nc1cncc(N2CCOCC2)c1 [5,7-difluoro-3-methyl-2-(2-(methylsulfonyl)phenyl)-N-(5-(4-morpholinyl)-3-pyridinyl)-4-quinolinamine] | 3.24 nM
2 | COc1ccc(-c2ncc(N3CCOCC3)cc2Nc2c(C)c(-c3cc(C)ccn3)nc3cc(F)cc(F)c23)cc1 [5,7-difluoro-N-(2-(4-methoxyphenyl)-5-(4-morpholinyl)-3-pyridinyl)-3-methyl-2-(4-methyl-2-pyridinyl)-4-quinolinamine] | 5.98 nM
3 | Cc1ccnc(-c2nc3c(Cl)cccc3c(Nc3cncc(N4CCOCC4)c3)c2C)c1 [8-chloro-3-methyl-2-(4-methyl-2-pyridinyl)-N-(5-(4-morpholinyl)-3-pyridinyl)-4-quinolinamine] | 2.39 nM
4 | Cc1ccnc(-c2nc3cc(F)ccc3c(Nc3cc(N4CCOCC4)cnc3N3CCOCC3)c2C(C)C)c1 [N-(2,5-di-4-morpholinyl-3-pyridinyl)-7-fluoro-3-(1-methylethyl)-2-(4-methyl-2-pyridinyl)-4-quinolinamine] | 14.3 nM
5 | Cc1c(N2CCNC[C@@H]2C)nc2cc(F)cc(F)c2c1Nc1cncc(N2CCOCC2)c1 [5,7-difluoro-3-methyl-2-((2S)-2-methyl-1-piperazinyl)-N-(5-(4-morpholinyl)-3-pyridinyl)-4-quinolinamine] | 78.1 nM
6 | Cc1c(-c2ccccn2)nc2cc(F)cc(F)c2c1Nc1cc(C2=CCOCC2)cnc1C1=CCOCC1 [N-(2,5-di-3,6-dihydro-2H-pyran-4-yl-3-pyridinyl)-5,7-difluoro-3-methyl-2-(2-pyridinyl)-4-quinolinamine] | 3.08 nM
7 | COc1ccc(-c2ccc(N3CCOCC3)cc2Nc2c(C)c(-c3ccccn3)nc3cc(F)cc(F)c23)cn1 [5,7-difluoro-N-(2-(6-methoxy-3-pyridinyl)-5-(4-morpholinyl)-phenyl)-3-methyl-2-(2-pyridinyl)-4-quinolinamine] | 3.19 nM
8 | Cc1c(N2CCN(S(=O)(=O)c3cccc(F)c3)CC2)nc2cc(F)cc(F)c2c1Nc1cncc(N2CCOCC2)c1 [5,7-difluoro-2-(4-((3-fluorophenyl)sulfonyl)-1-piperazinyl)-3-methyl-N-(5-(4-morpholinyl)-3-pyridinyl)-4-quinolinamine] | 61.1 nM
9 | Cc1c(-c2ccc(N3CCOCC3)nc2)nc2cc(F)cc(F)c2c1Nc1cc(N2CCOCC2)cnc1N1CCOCC1 [N-(2,5-di-4-morpholinyl-3-pyridinyl)-5,7-difluoro-3-methyl-2-(6-(4-morpholinyl)-3-pyridinyl)-4-quinolinamine] | 67.5 nM
10 | Cc1cccc(-c2nc3cc(F)cc(F)c3c(Nc3cc(N4CCOCC4)cnc3N3CCOCC3)c2C)c1C [2-(2,3-dimethylphenyl)-N-(2,5-di-4-morpholinyl-3-pyridinyl)-5,7-difluoro-3-methyl-4-quinolinamine] | 12.9 nM
11 | Cc1c(N2CCN(C3CCCCC3)CC2)nc2cc(F)cc(F)c2c1Nc1cncc(N2CCOCC2)c1 [2-(4-cyclohexyl-1-piperazinyl)-5,7-difluoro-3-methyl-N-(5-(4-morpholinyl)-3-pyridinyl)-4-quinolinamine] | 28.4 nM
12 | CC(=O)N1CCN(c2nc3cc(F)cc(F)c3c(Nc3cncc(N4CCOCC4)c3)c2C)CC1 [2-(4-acetyl-1-piperazinyl)-5,7-difluoro-3-methyl-N-(5-(4-morpholinyl)-3-pyridinyl)-4-quinolinamine] | 33.6 nM
13 | Cc1ccc(S(C)(=O)=O)c(-c2nc3cc(F)cc(F)c3c(Nc3cc(N4CCOCC4)cnc3N3CCOCC3)c2C)c1 [N-(2,5-di-4-morpholinyl-3-pyridinyl)-5,7-difluoro-3-methyl-2-(5-methyl-2-(methylsulfonyl)phenyl)-4-quinolinamine] | 8.22 nM
14 | Cc1c(-c2ccccn2)nc2cc(F)cc(F)c2c1Nc1cc(N2CCOCC2)ccc1C1=CCOCC1 [N-(2-(3,6-dihydro-2H-pyran-4-yl)-5-(4-morpholinyl)phenyl)-5,7-difluoro-3-methyl-2-(2-pyridinyl)-4-quinolinamine] | 7.65 nM
